What was measured:
[1] = cantilever array surface stress detection, D-Lac coated cantilevers, buffer; format: binding
[2] = cantilever bending in serum, D-Ala coated cantilevers; format: binding; conditions: 7 μM Van in serum (90% fetal calf serum plus 10% sodium phosphate buffer pH 7.4), 25 °C
[3] = cantilever bending in serum, D-Lac coated cantilevers; format: binding; conditions: 7 μM Van in serum (90% fetal calf serum plus 10% sodium phosphate buffer pH 7.4), 25 °C
[4] = D-Lac vs D-Ala peptide terminus; cited from earlier work
[5] = test system: vancomycin-resistant Enterococcus (VRE); conditions: vancomycin-resistant Enterococcus (D-Lac); cited from earlier work

SMILES: CN[C@H](CC(C)C)C(=O)N[C@H]1C(=O)N[C@@H](CC(N)=O)C(=O)N[C@H]2C(=O)N[C@H]3C(=O)N[C@H](C(=O)N[C@H](C(=O)O)c4cc(O)cc(O)c4-c4cc3ccc4O)[C@H](O)c3ccc(c(Cl)c3)Oc3cc2cc(c3O[C@@H]2O[C@H](CO)[C@@H](O)[C@H](O)[C@H]2O[C@H]2C[C@](C)(N)[C@H](O)[C@H](C)O2)Oc2ccc(cc2Cl)[C@H]1O [Van, vancomycin]
- bending signal at high vancomycin concentration [1]: measureable bending signals
- differential bending signal [2]: 105±4 nm
- bending signal [3]: no bending was observed
- reduction in Van-D-Lac binding affinity [4]: three orders of magnitude
- therapeutic effectiveness against Enterococcal infections [5]: therapeutically ineffective
